# Laboratory results: US4605744A, “Imidazole derivatives” (Hoffmann-La Roche Inc., priority 1985, dated 1986)
# Counter-ions that a name gives are not always drawn.
# Columns and labels:
# Assay type in all cases: cell-based
# [1] = tested on: E. coli 257; assay: In vitro antibacterial activity (MIC, Mueller-Hinton broth); settings: Escherichia coli, 257
# Description: (§1) Drug dilutions are prepared in Mueller-Hinton broth ranging from 128 to 0.008 μg/ml. The diluted agents are dispensed in 100 μl amounts into the wells of a 96-well tray and used immediately or frozen at -10° to -70° C. until needed. Using an automated inoculator, 1.5 μl of a 10^-2 dilution of an overnight culture is added to each well of the tray. The tops of the trays are then sealed using transparent tape and incubated overnight at 37° C. The trays are examined with the aid of a viewer. The lowest concentration at which no growth is observed is considered to be the minimum inhibitory concentration (MIC).
# [2] = tested on: C. freundii 8ASM; assay: In vitro antibacterial activity (MIC); settings: Citrobacter freundii, 8ASM, C. freundii 8ASM; read-out: MIC
# Description: as §1
# [3] = tested on: P. vulgaris 100; assay: In vitro antibacterial activity (MIC); settings: Proteus vulgaris; P. vulgaris 100; read-out: MIC
# Description: as §1
# [4] = tested on: S. pneumoniae SC; assay: In vitro antibacterial activity (MIC); settings: Streptococcus pneumoniae, read-out: MIC
# Description: as §1
# [5] = tested on: E. aerogenes 503-478; assay: In vitro antibacterial activity (MIC); settings: Klebsiella aerogenes, 503478, E. aerogenes 503-478; read-out: MIC
# Description: as §1
# [6] = tested on: P. mirabilis 190; assay: In vitro antibacterial activity (MIC); settings: Proteus mirabilis, 190, P. mirabilis 190; read-out: MIC
# Description: as §1
# [7] = tested on: S. marcescens S3; assay: In vitro antibacterial activity (MIC); settings: Serratia marcescens; S. marcescens S3; read-out: MIC
# Description: as §1
# [8] = tested on: P. vulgaris 101; assay: In vitro antibacterial activity (MIC); settings: Proteus vulgaris, 101, P. vulgaris 101; read-out: MIC
# Description: as §1
# [9] = tested on: P. aeruginosa 5712; assay: In vitro antibacterial activity (MIC); settings: Pseudomonas aeruginosa; P. aeruginosa 5712; read-out: MIC
# Description: as §1
# [10] = tested on: E. cloacae 9570A; assay: In vitro antibacterial activity (MIC); settings: Enterobacter cloacae, read-out: MIC
# Description: as §1
# [11] = tested on: S. marcescens 5805; assay: In vitro antibacterial activity (MIC); settings: Serratia marcescens, 5805, S. marcescens 5805; read-out: MIC
# Description: as §1
# [12] = tested on: K. pneumoniae A; assay: In vitro antibacterial activity (MIC); settings: Klebsiella pneumoniae, K. pneumoniae A; read-out: MIC
# Description: as §1
# [13] = tested on: S. marcescens SM; assay: In vitro antibacterial activity (MIC); settings: Serratia marcescens, read-out: MIC
# Description: as §1
# [14] = tested on: S. schottmuelleri; assay: In vitro antibacterial activity (MIC); settings: read-out: MIC
# Description: as §1
# [15] = tested on: S. marcescens S4; assay: In vitro antibacterial activity (MIC); settings: Serratia marcescens, S4, S. marcescens S4; read-out: MIC
# Description: as §1
# [16] = tested on: P. mirabilis 2; assay: In vitro antibacterial activity (MIC); settings: Proteus mirabilis, 2, P. mirabilis 2; read-out: MIC
# Description: as §1
# [17] = tested on: S. aureus 1059B; assay: In vitro antibacterial activity (MIC); settings: Staphylococcus aureus, read-out: MIC
# Description: as §1
# [18] = tested on: E. cloacae 5699; assay: In vitro antibacterial activity (MIC); settings: Enterobacter cloacae, 5699, E. cloacae 5699; read-out: MIC
# Description: as §1
# [19] = tested on: S. pyogenes 4; assay: In vitro antibacterial activity (MIC); settings: Streptococcus pyogenes, 4, S. pyogenes 4; read-out: MIC
# Description: as §1
# [20] = tested on: S. aureus Smith; assay: In vitro antibacterial activity (MIC); settings: Staphylococcus aureus, S. aureus Smith; read-out: MIC
# Description: as §1
# [21] = tested on: P. vulgaris ATCC 6380; assay: In vitro antibacterial activity (MIC); settings: Proteus vulgaris, ATCC6380, P. vulgaris ATCC 6380; read-out: MIC
# Description: as §1
# [22] = tested on: S. marcescens S5; assay: In vitro antibacterial activity (MIC); settings: Serratia marcescens, S5, S. marcescens S5; read-out: MIC
# Description: as §1
# [23] = tested on: K. pneumoniae 4964; assay: In vitro antibacterial activity (MIC); settings: Klebsiella pneumoniae, 4964, K. pneumoniae 4964; read-out: MIC
# Description: as §1
# [24] = tested on: S. marcescens S714; assay: In vitro antibacterial activity (MIC); settings: Serratia marcescens, S714, S. marcescens S714; read-out: MIC
# Description: as §1
# [25] = tested on: P. mirabilis 620A; assay: In vitro antibacterial activity (MIC); settings: Proteus mirabilis, 620A, P. mirabilis 620A; read-out: MIC
# Description: as §1
# [26] = tested on: K. pneumoniae 503-994; assay: In vitro antibacterial activity (MIC); settings: Klebsiella pneumoniae, 503994, K. pneumoniae 503-994; read-out: MIC
# Description: as §1
# [27] = tested on: E. cloacae P99; assay: In vitro antibacterial activity (MIC); settings: Enterobacter cloacae, P99, E. cloacae P99
# Description: as §1
# [28] = tested on: P. aeruginosa 6148B; assay: In vitro antibacterial activity (MIC); settings: Pseudomonas aeruginosa, read-out: MIC
# Description: as §1
# [29] = tested on: S. marcescens S2; assay: In vitro antibacterial activity (MIC); settings: Serratia marcescens; S. marcescens S2; read-out: MIC
# Description: as §1
# [30] = tested on: S. marcescens S147; assay: In vitro antibacterial activity (MIC); settings: Serratia marcescens; S. marcescens S147; read-out: MIC
# Description: as §1
# [31] = tested on: P. rettgeri ATCC 9250; assay: In vitro antibacterial activity (MIC); settings: Providencia rettgeri, ATCC9250, P. rettgeri ATCC 9250; read-out: MIC
# Description: as §1
# [32] = tested on: P. mirabilis 90; assay: In vitro antibacterial activity (MIC); settings: Proteus mirabilis, 90, P. mirabilis 90; read-out: MIC
# Description: as §1
# [33] = tested on: P. aeruginosa 8780; assay: In vitro antibacterial activity (MIC); settings: Pseudomonas aeruginosa; P. aeruginosa 8780; read-out: MIC
# Description: as §1
# [34] = tested on: E. aerogenes 83; assay: In vitro antibacterial activity (MIC); settings: Klebsiella aerogenes, 83
# Description: as §1
# [35] = tested on: E. cloacae 24; assay: In vitro antibacterial activity (MIC); settings: Enterobacter cloacae, 24, E. cloacae 24; read-out: MIC
# Description: as §1
# [36] = tested on: P. aeruginosa 503-820; assay: In vitro antibacterial activity (MIC); settings: Pseudomonas aeruginosa, 503820; P. aeruginosa 503-820; read-out: MIC
# Description: as §1
# [37] = tested on: E. cloacae 214; assay: In vitro antibacterial activity (MIC); settings: Enterobacter cloacae, 214, E. cloacae 214; read-out: MIC
# Description: as §1
# [38] = tested on: E. cloacae 9295; assay: In vitro antibacterial activity (MIC); settings: Enterobacter cloacae, 9295
# Description: as §1
# [39] = tested on: P. aeruginosa POW 151; assay: In vitro antibacterial activity (MIC); settings: Pseudomonas aeruginosa, POW151
# Description: as §1
# [40] = tested on: K. pneumoniae 8357; assay: In vitro antibacterial activity (MIC); settings: Klebsiella pneumoniae, 8357, K. pneumoniae 8357; read-out: MIC
# Description: as §1
# [41] = tested on: K. pneumoniae 5096; assay: In vitro antibacterial activity (MIC); settings: Klebsiella pneumoniae; K. pneumoniae 5096; read-out: MIC
# Description: as §1
# [42] = tested on: K. pneumoniae HE7; assay: In vitro antibacterial activity (MIC); settings: Klebsiella pneumoniae; K. pneumoniae HE7; read-out: MIC
# Description: as §1
# [43] = tested on: P. mirabilis 503-1136; assay: In vitro antibacterial activity (MIC); settings: Proteus mirabilis, 5031136, P. mirabilis 503-1136; read-out: MIC
# Description: as §1
# [44] = tested on: E. aerogenes 8; assay: In vitro antibacterial activity (MIC); settings: Klebsiella aerogenes, 8, E. aerogenes 8
# Description: as §1
structure (smiles),measurement,setting,value
"CC1(C)S[C@@H]2[C@H](N=CN3CCC(Cn4ccnc4N)CC3)C(=O)N2[C@H]1C(=O)O [H, [2S-(2alpha,5alpha,6beta)]-6-[[[4-[(2-amino-1H-imidazol-1-yl)methyl-1-piperidinyl]methylene]amino]-3,3-dimethyl-7-oxo-4-thia-1-azabicyclo[3.2.0]heptane-2-carboxylic acid hydrochloride]",MIC,[1],0.25 µg/mL
same,MIC,[2],0.031 µg/mL
same,MIC,[3],4 µg/mL
same,MIC,[4],1 µg/mL
same,MIC,[5],8 µg/mL
same,MIC,[6],0.125 µg/mL
same,MIC,[7],0.125 µg/mL
same,MIC,[8],8 µg/mL
same,MIC,[9],128 µg/mL
same,MIC,[10],0.25 µg/mL
same,MIC,[11],0.5 µg/mL
same,MIC,[12],0.031 µg/mL
same,MIC,[13],0.125 µg/mL
same,MIC,[14],0.062 µg/mL
same,MIC,[15],0.5 µg/mL
same,MIC,[16],0.25 µg/mL
same,MIC,[17],128 µg/mL
same,MIC,[18],0.25 µg/mL
same,MIC,[19],1 µg/mL
same,MIC,[20],8 µg/mL
same,MIC,[21],0.062 µg/mL
same,MIC,[22],0.5 µg/mL
same,MIC,[23],64 µg/mL
same,MIC,[24],0.25 µg/mL
same,MIC,[25],16 µg/mL
same,MIC,[26],0.125 µg/mL
same,MIC,[27],0.062 µg/mL
same,MIC,[28],64 µg/mL
same,MIC,[29],0.062 µg/mL
same,MIC,[30],0.031 µg/mL
same,MIC,[31],0.25 µg/mL
same,MIC,[32],0.125 µg/mL
same,MIC,[33],> 128 µg/mL
same,MIC,[34],16 µg/mL
same,MIC,[35],0.25 µg/mL
same,MIC,[36],64 µg/mL
same,MIC,[37],0.125 µg/mL
same,MIC,[38],0.5 µg/mL
same,MIC,[39],> 128 µg/mL
same,MIC,[40],0.125 µg/mL
same,MIC,[41],64 µg/mL
same,MIC,[42],128 µg/mL
same,MIC,[43],4 µg/mL
same,MIC,[44],32 µg/mL
